The source of these data is ChEMBL document CHEMBL1909046, “DrugMatrix in vitro pharmacology data”.

A short description of data set [1]: DRUGMATRIX: Sigma2 radioligand binding (ligand: [3H] Ifenprodil). The format is cell membranes, Rattus norvegicus, Wistar, Brain, Membrane. To be noted: Not Active = under 50% inhibition at 10 µM.
In data set [2] the target is Nitric oxide synthase 1 (Rattus norvegicus, UniProt P29476). The format is tissue-based, Cerebellum. Further: in other assays of this panel Not Active means under 50% inhibition at 10 µM.
For data set [3], the target named is T1, Progesterone receptor (Bos taurus, UniProt Q690N0).
T1 sequence (Q690N0 whole entry): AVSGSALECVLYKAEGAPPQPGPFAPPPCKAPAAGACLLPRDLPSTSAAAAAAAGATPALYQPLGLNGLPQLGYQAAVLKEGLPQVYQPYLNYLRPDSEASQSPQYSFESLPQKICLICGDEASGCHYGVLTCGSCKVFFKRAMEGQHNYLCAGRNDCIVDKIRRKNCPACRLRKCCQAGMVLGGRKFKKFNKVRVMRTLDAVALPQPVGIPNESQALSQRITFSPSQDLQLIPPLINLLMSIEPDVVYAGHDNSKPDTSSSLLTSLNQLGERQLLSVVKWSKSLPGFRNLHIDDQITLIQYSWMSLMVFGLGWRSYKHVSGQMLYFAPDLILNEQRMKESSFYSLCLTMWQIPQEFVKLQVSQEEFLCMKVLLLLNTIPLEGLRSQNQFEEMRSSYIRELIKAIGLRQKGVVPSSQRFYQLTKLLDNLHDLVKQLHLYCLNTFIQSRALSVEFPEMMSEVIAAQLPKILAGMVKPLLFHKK
Put plainly: DRUGMATRIX: Progesterone radioligand binding (ligand: [3H] R-5020). The data set is classed as tissue-based, Uterus. To be noted: Not Active = under 50% inhibition at 10 µM.

Data set [4] addresses T2, Interstitial collagenase (Homo sapiens, UniProt P03956).
T2 sequence (P03956 whole entry): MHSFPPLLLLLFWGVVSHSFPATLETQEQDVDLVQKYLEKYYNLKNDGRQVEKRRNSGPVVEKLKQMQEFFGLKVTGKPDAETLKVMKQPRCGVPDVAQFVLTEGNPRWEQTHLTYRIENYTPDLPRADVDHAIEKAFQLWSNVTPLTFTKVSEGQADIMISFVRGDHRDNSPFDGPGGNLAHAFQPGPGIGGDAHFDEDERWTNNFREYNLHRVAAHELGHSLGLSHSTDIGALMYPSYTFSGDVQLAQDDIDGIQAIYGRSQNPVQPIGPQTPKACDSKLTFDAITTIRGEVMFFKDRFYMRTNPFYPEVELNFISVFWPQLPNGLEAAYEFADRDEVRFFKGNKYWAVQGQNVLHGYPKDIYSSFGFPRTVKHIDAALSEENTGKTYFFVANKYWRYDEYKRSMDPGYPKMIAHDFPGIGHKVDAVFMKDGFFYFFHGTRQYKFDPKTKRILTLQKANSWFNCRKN
Put plainly: biochemical. The data set is classed as tissue-based, Rheumatoid synovial fibroblasts.

Data set [5] has as its target T3, Cytochrome P450 1A2 (Homo sapiens, UniProt P05177). Further: in other assays of this panel Not Active means under 50% inhibition at 10 µM.
T3 sequence (P05177 whole entry): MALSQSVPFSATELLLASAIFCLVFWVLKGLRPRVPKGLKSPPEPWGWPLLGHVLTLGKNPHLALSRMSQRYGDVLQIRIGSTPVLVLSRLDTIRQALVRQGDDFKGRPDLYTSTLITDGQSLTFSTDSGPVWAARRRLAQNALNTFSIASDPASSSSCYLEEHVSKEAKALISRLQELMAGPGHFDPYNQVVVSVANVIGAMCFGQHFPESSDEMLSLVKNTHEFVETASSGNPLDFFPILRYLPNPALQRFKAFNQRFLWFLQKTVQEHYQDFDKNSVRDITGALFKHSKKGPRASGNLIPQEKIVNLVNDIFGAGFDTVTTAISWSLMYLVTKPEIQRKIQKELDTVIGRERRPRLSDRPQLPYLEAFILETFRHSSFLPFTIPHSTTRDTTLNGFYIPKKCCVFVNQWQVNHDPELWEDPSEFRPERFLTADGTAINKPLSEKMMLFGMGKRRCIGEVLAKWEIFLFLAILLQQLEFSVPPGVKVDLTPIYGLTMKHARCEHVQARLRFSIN
Particulars: bti-tn-5b1-4.

For data set [6], the target named is T4, Glucocorticoid receptor (Homo sapiens, UniProt P04150). Further: in other assays of this panel Not Active means under 50% inhibition at 10 µM.
T4 sequence (P04150 whole entry): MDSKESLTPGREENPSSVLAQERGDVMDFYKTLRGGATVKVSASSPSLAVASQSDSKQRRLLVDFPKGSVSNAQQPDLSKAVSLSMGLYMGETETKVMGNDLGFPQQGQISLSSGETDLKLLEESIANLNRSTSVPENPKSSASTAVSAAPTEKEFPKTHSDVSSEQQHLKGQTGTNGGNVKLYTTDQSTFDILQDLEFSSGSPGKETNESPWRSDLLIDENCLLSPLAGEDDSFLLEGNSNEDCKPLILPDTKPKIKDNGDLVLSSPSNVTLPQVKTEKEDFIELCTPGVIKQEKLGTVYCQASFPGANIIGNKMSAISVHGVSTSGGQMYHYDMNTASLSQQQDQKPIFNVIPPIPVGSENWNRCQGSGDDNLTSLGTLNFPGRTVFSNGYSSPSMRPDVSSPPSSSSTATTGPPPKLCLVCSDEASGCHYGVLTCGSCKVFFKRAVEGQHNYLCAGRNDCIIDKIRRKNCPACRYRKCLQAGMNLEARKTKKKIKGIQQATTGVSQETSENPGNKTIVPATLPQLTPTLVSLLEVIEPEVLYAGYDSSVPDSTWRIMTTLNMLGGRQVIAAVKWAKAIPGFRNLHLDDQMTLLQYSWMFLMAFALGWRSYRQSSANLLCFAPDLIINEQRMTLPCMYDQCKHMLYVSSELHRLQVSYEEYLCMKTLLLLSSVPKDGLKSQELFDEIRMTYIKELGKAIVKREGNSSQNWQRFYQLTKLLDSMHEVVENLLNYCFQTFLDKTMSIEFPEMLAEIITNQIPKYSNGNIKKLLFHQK
To be noted: hela s3.

Data set [7] addresses Cytochrome P450 2C19 (Homo sapiens, UniProt P33261). Particulars: bti-tn-5b1-4.

Sequence of Nitric oxide synthase 1 (P29476 whole entry): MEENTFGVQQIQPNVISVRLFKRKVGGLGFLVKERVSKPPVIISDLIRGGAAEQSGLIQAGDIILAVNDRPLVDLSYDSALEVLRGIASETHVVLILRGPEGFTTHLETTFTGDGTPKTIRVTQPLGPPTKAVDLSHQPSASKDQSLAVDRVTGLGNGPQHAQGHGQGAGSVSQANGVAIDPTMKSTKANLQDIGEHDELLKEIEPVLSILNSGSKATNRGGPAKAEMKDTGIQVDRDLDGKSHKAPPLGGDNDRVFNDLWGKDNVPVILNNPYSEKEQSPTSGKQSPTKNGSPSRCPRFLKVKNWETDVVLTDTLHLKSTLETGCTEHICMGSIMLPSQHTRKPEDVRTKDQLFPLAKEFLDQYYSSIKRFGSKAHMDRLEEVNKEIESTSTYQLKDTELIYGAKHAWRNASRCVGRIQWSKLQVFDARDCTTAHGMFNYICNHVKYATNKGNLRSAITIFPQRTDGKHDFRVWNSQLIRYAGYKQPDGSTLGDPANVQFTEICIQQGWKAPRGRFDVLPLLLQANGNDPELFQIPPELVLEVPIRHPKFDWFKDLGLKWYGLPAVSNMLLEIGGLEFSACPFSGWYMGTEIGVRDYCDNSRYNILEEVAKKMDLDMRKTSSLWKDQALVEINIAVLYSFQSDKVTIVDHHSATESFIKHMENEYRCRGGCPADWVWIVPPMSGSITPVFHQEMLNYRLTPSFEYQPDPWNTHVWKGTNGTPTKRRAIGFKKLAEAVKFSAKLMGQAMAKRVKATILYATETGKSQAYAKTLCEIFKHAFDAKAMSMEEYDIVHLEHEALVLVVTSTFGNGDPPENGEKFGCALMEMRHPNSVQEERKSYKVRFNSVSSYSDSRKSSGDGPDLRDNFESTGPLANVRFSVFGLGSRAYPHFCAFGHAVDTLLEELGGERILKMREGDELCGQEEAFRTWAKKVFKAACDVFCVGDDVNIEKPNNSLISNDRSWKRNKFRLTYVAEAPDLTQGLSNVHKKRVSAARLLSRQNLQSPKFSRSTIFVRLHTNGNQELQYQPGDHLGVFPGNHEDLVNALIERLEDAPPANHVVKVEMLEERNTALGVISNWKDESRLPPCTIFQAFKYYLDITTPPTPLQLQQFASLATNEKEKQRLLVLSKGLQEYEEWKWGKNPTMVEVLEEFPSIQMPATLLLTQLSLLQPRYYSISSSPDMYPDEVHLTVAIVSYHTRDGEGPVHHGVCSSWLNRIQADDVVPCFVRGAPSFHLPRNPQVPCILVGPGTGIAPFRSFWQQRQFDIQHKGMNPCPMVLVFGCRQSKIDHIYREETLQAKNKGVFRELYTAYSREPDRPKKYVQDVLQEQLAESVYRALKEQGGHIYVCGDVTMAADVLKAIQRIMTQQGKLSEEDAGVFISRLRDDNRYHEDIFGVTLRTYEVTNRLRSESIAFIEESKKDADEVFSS
Sequence of Cytochrome P450 2C19 (P33261 whole entry): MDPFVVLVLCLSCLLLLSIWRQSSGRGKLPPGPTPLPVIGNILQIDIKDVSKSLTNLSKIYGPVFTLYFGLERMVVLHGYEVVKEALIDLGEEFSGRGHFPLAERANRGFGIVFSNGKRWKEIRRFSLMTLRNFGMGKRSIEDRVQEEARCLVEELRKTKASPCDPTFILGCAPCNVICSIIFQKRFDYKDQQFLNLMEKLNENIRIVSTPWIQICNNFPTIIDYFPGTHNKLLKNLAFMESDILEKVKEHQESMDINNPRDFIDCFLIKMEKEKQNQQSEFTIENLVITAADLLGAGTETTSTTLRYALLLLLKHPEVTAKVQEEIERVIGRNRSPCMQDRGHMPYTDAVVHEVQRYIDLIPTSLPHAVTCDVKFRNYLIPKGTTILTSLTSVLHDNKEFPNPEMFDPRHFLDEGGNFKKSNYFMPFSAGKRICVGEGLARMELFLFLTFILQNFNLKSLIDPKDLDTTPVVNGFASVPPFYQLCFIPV

What is called IC50 is the concentration that inhibits the measured activity by half. In general, Ki refers to a measure of affinity in units of concentration, obtained from inhibition or displacement. In the case of `Nc1ncn([C@@H]2O[C@H](CO)[C@@H](O)[C@H]2O)c(=O)n1` [AZACITIDINE], the half-inhibitory concentration (IC50) result in data set [1], in data set [2], in data set [3], in data set [4], in data set [5] and in data set [6] was “Not Active” each time. Further, the Ki entry in data set [1] and in data set [5] was “Not Active” in each case.
For the compound `CCn1cc(C(=O)O)c(=O)c2cc(F)c(N3CCNCC3)cc21` [NORFLOXACIN], the IC50 entry in data set [1], in data set [2], in data set [3], in data set [4], in data set [5] and in data set [6] was “Not Active” in each case. For the same compound, the Ki result in data set [1] and in data set [5] was “Not Active” throughout.
As to `CN(C)CCCN1c2ccccc2Sc2ccc(Cl)cc21` [CHLORPROMAZINE], the IC50 in data set [1] (read-out: IC50) was 2720 nM; in data set [2], “Not Active”; in data set [3], “Not Active”; in data set [4], “Not Active”; in data set [6], “Not Active”. For the same compound, in data set [1] (read-out: Ki), the Ki is 1670 nM.
As for `Nc1c(Br)cc(Br)cc1CN[C@H]1CC[C@H](O)CC1` [AMBROXOL], the IC50 entry in data set [1], in data set [2], in data set [3], in data set [4] and in data set [6] was “Not Active” each time. For the same compound, the Ki entry in data set [1] is given as “Not Active”.
Consider `CCOc1ccc(NC(C)=O)cc1` [PHENACETIN], for which the IC50 result in data set [1], in data set [2], in data set [3], in data set [4], in data set [5] and in data set [6] was “Not Active” in each case. In addition, the Ki result in data set [1] and in data set [5] was “Not Active” in each case.
Regarding `CC1(C)S[C@@H]2[C@H](NC(=O)Cc3ccccc3)C(=O)N2[C@H]1C(=O)O` [PENICILLIN G], the IC50 result in data set [1], in data set [2], in data set [3], in data set [4] and in data set [6] was “Not Active” each time. Besides, the inhibition constant (Ki) result in data set [1] is “Not Active”.
In the case of `CC(NC(C)(C)C)C(=O)c1cccc(Cl)c1` (centres undefined) [BUPROPION], the concentration for half-maximal inhibition (IC50) in data set [1] (read-out: IC50) is 2320 nM; in data set [2] it was “Not Active”; in data set [3], “Not Active”; in data set [4] it was “Not Active”; in data set [5], “Not Active”; in data set [6], “Not Active”. The Ki in data set [1] (read-out: Ki) was 1420 nM; in data set [5], “Not Active”.
As for `COCCc1ccc(OCC(O)CNC(C)C)cc1` (centres undefined) [METOPROLOL], the IC50 result in data set [1], in data set [2], in data set [3], in data set [4], in data set [5] and in data set [6] was “Not Active” in each case. In addition, the Ki entry in data set [1] and in data set [5] was “Not Active” throughout.
For the compound `CC(C)[C@@]1(NC(=O)[C@@H]2C[C@@H]3c4cccc5[nH]cc(c45)C[C@H]3N(C)C2)O[C@@]2(O)[C@@H]3CCCN3C(=O)[C@H](Cc3ccccc3)N2C1=O.CS(=O)(=O)O` [DIHYDROERGOCRISTINE MESYLATE], the IC50 result in data set [1], in data set [2], in data set [3], in data set [4], in data set [5] and in data set [6] was “Not Active” in each case. Further, the Ki entry in data set [1] and in data set [5] was “Not Active” each time.
Regarding `CN(C)c1nc(N(C)C)nc(N(C)C)n1` [ALTRETAMINE], the IC50 entry in data set [1], in data set [2], in data set [4] and in data set [6] was “Not Active” each time. For the same compound, the Ki result in data set [1] is reported as “Not Active”.
For `COc1cc2c3cc1Oc1cc(ccc1O)C[C@@H]1c4c(cc(OC)c(O)c4Oc4ccc(cc4)C[C@@H]3N(C)CC2)CC[N+]1(C)C.[Cl-]`, the IC50 result in data set [1], in data set [2], in data set [3], in data set [4], in data set [5] and in data set [7] was “Not Active” throughout. Further, the Ki entry in data set [1], in data set [5] and in data set [7] was “Not Active” throughout.
On to `CCCCN1CCCC[C@H]1C(=O)Nc1c(C)cccc1C` [LEVOBUPIVACAINE], for which the IC50 result in data set [1], in data set [2], in data set [3], in data set [4], in data set [5] and in data set [7] was “Not Active” in each case. The Ki entry in data set [1], in data set [5] and in data set [7] was “Not Active” throughout.
Consider `CC(=O)O[C@@]12CO[C@@H]1C[C@H](O)[C@@]1(C)C(=O)[C@H](O)C3=C(C)[C@@H](OC(=O)[C@H](O)[C@@H](NC(=O)OC(C)(C)C)c4ccccc4)C[C@@](O)([C@@H](OC(=O)c4ccccc4)[C@H]21)C3(C)C.O.O.O` [DOCETAXEL], for which the half-maximal inhibitory concentration (IC50) result in data set [1], in data set [2], in data set [3], in data set [4], in data set [5] and in data set [7] was “Not Active” in each case. Further, the Ki entry in data set [1], in data set [5] and in data set [7] was “Not Active” in each case.
Consider `N=C(N)NCCN1CCCCCCC1` [GUANETHIDINE], for which the IC50 result in data set [1], in data set [2], in data set [3], in data set [4] and in data set [6] was “Not Active” throughout. In addition, in data set [1], the Ki result is “Not Active”.
`COc1cc2nc(N3CCN(C(=O)C4COc5ccccc5O4)CC3)nc(N)c2cc1OC` (centres undefined) [DOXAZOSIN]: the IC50 result in data set [1] was “Not Active”; in data set [2] it was “Not Active”; in data set [3] it was “Not Active”; in data set [4] (read-out: IC50), 5750 nM; in data set [5] it was “Not Active”; in data set [7] it was “Not Active”. Besides, the Ki entry in data set [1], in data set [5] and in data set [7] was “Not Active” in each case.
Regarding `CC(C)(Oc1ccc(Cl)cc1)C(=O)O` [CLOFIBRIC ACID], the IC50 entry in data set [1], in data set [2], in data set [3], in data set [4] and in data set [6] was “Not Active” throughout. The Ki result in data set [1] is “Not Active”.
